# According to ChEMBL document CHEMBL1201862, “PubChem BioAssay data set” (2004):
#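 Protocol summary: plate cells (96-well), add compound at 5 concentrations, incubate 48 h, interpolate endpoints linearly. The concentration for 50% growth inhibition is given as GI50.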 The source made the active and inactive calls. No stated cut-off is given here; in the data, active = GI50 up to about 1.1 µM and inactive = higher.
# How the values were obtained:
# Assay in all cases: inhibition of tumour cell growth, NCI panel, 48 h
# [1] = test system: RXF 393
# [2] = test system: M19-MEL
# [3] = test system: COLO 205
# [4] = test system: MOLT-4
# [5] = test system: HCC 2998
# [6] = test system: K562
# [7] = test system: TK-10
# [8] = test system: HOP-62
# [9] = test system: OVCAR-4
# [10] = test system: NCI-H23
# [11] = test system: LXFL 529
# [12] = test system: DMS-114
# [13] = test system: SK-MEL-5
# [14] = test system: KM12
# [15] = test system: HL-60
# [16] = test system: SF-539
# [17] = test system: LOX IMVI
# [18] = test system: CCRF-CEM
# [19] = test system: SW-620
# [20] = test system: SF-295
# [21] = test system: SK-MEL-28
# [22] = test system: SN12C
# [23] = test system: SNB-75
# [24] = test system: OVCAR-8
# [25] = test system: DLD-1
# [26] = test system: UACC-257
# [27] = test system: UO-31
# [28] = test system: NCI-H522
# [29] = test system: NCI-H226
# [30] = test system: A549
# [31] = test system: SF-268
# [32] = test system: ACHN
# [33] = test system: U-251
# [34] = test system: EKVX
# [35] = test system: HOP-92
# [36] = test system: SK-MEL-2
# [37] = test system: OVCAR-5
# [38] = test system: CAKI-1
# [39] = test system: SNB-19
# [40] = test system: IGROV-1
# [41] = test system: RXF 631
# [42] = test system: SNB-78
# [43] = test system: RPMI-8226
# [44] = test system: 786-0
# [45] = test system: XF498
# [46] = test system: NCI-H460
# [47] = test system: M14
# [48] = test system: KM-20L2
# [49] = test system: Malme-3M
# [50] = test system: A498
# [51] = test system: OVCAR-3
# [52] = test system: HT-29
# [53] = test system: SK-OV-3
# [54] = test system: HCT-116
# [55] = test system: HCT-15
# [56] = test system: UACC-62
# [57] = test system: SR
# [58] = test system: DMS-273
# [59] = test system: HOP-18
compound,measurement,setting,value
CCc1cccc(C)c1NC(=O)C1=C(C)NC(C)=C(C(=O)Nc2c(C)cccc2CC)C1c1ccc2c(c1)OCO2,GI50,[1],13.2 µM (inactive)
same,GI50,[2],21.4 µM (inactive)
same,GI50,[3],18.5 µM (inactive)
same,GI50,[4],21.2 µM (inactive)
same,GI50,[5],19.7 µM (inactive)
same,GI50,[6],27.2 µM (inactive)
same,GI50,[7],26.6 µM (inactive)
same,GI50,[8],20.7 µM (inactive)
same,GI50,[9],20.1 µM (inactive)
same,GI50,[10],16.5 µM (inactive)
same,GI50,[11],18.2 µM (inactive)
same,GI50,[12],16.2 µM (inactive)
same,GI50,[13],16.2 µM (inactive)
same,GI50,[14],16.4 µM (inactive)
same,GI50,[15],21.4 µM (inactive)
same,GI50,[16],19.7 µM (inactive)
same,GI50,[17],18.3 µM (inactive)
same,GI50,[18],18.8 µM (inactive)
same,GI50,[19],20.2 µM (inactive)
same,GI50,[20],17.5 µM (inactive)
same,GI50,[21],15.6 µM (inactive)
same,GI50,[22],19.2 µM (inactive)
same,GI50,[23],9.84 µM (inactive)
same,GI50,[24],29.6 µM (inactive)
same,GI50,[25],20.5 µM (inactive)
same,GI50,[26],18.5 µM (inactive)
same,GI50,[27],15.3 µM (inactive)
same,GI50,[28],15.9 µM (inactive)
same,GI50,[29],19.8 µM (inactive)
same,GI50,[30],16.9 µM (inactive)
same,GI50,[31],20.3 µM (inactive)
same,GI50,[32],15.5 µM (inactive)
same,GI50,[33],15.2 µM (inactive)
same,GI50,[34],20.5 µM (inactive)
same,GI50,[35],18.2 µM (inactive)
same,GI50,[36],15.1 µM (inactive)
same,GI50,[37],22 µM (inactive)
same,GI50,[38],18.8 µM (inactive)
same,GI50,[39],29.1 µM (inactive)
same,GI50,[40],24.7 µM (inactive)
same,GI50,[41],20 µM (inactive)
same,GI50,[42],25.8 µM (inactive)
same,GI50,[43],16.8 µM (inactive)
same,GI50,[44],16.7 µM (inactive)
same,GI50,[45],15.7 µM (inactive)
same,GI50,[46],16.1 µM (inactive)
same,GI50,[47],16.1 µM (inactive)
same,GI50,[48],23.9 µM (inactive)
same,GI50,[49],15.6 µM (inactive)
same,GI50,[50],11.3 µM (inactive)
same,GI50,[51],17.5 µM (inactive)
same,GI50,[52],20.8 µM (inactive)
same,GI50,[53],48.9 µM (inactive)
Cc1cc(C)nc(NS(=O)(=O)c2ccc(NC(=O)c3cccc4c(Nc5ccc(S(=O)(=O)N=C(N)N)cc5)c5ccc(Cl)cc5nc34)cc2)n1,GI50,[1],18.9 µM (inactive)
same,GI50,[2],53.7 µM (inactive)
same,GI50,[4],15.6 µM (inactive)
same,GI50,[5],19.8 µM (inactive)
same,GI50,[6],26.2 µM (inactive)
same,GI50,[7],40 µM (inactive)
same,GI50,[8],43.7 µM (inactive)
same,GI50,[10],30.8 µM (inactive)
same,GI50,[11],27.6 µM (inactive)
same,GI50,[12],45.7 µM (inactive)
same,GI50,[14],30.5 µM (inactive)
same,GI50,[16],17.2 µM (inactive)
same,GI50,[17],19.8 µM (inactive)
same,GI50,[18],21.4 µM (inactive)
same,GI50,[20],24.1 µM (inactive)
same,GI50,[21],37.4 µM (inactive)
same,GI50,[22],29.8 µM (inactive)
same,GI50,[23],> 100 µM (inactive)
same,GI50,[24],39.4 µM (inactive)
same,GI50,[25],17.7 µM (inactive)
same,GI50,[54],17.4 µM (inactive)
same,GI50,[26],20.2 µM (inactive)
same,GI50,[55],39.4 µM
same,GI50,[27],41.8 µM (inactive)
same,GI50,[56],34.4 µM (inactive)
same,GI50,[28],18.2 µM (inactive)
same,GI50,[31],41 µM (inactive)
same,GI50,[32],80.9 µM (inactive)
same,GI50,[57],27.1 µM (inactive)
same,GI50,[33],15.8 µM (inactive)
same,GI50,[34],30.8 µM (inactive)
same,GI50,[37],> 100 µM (inactive)
same,GI50,[39],23.1 µM (inactive)
same,GI50,[41],28.6 µM (inactive)
same,GI50,[42],40.6 µM (inactive)
same,GI50,[43],23.5 µM (inactive)
same,GI50,[44],17.7 µM (inactive)
same,GI50,[45],> 100 µM (inactive)
same,GI50,[46],42.8 µM (inactive)
same,GI50,[47],> 100 µM (inactive)
same,GI50,[48],59 µM (inactive)
same,GI50,[49],85.1 µM (inactive)
same,GI50,[50],> 100 µM (inactive)
same,GI50,[51],22.2 µM (inactive)
same,GI50,[52],33.1 µM (inactive)
same,GI50,[53],> 100 µM (inactive)
O=C(CCc1nnc(S)[nH]1)Nc1cc(Cl)ccc1Cl,GI50,[2],> 100 µM (inactive)
same,GI50,[3],> 100 µM (inactive)
same,GI50,[4],> 100 µM (inactive)
same,GI50,[5],> 100 µM (inactive)
same,GI50,[6],> 100 µM (inactive)
same,GI50,[7],> 100 µM (inactive)
same,GI50,[8],> 100 µM (inactive)
same,GI50,[9],> 100 µM (inactive)
same,GI50,[10],> 100 µM (inactive)
same,GI50,[11],> 100 µM (inactive)
same,GI50,[12],> 100 µM (inactive)
same,GI50,[13],> 100 µM (inactive)
same,GI50,[14],> 100 µM (inactive)
same,GI50,[15],> 100 µM (inactive)
same,GI50,[16],> 100 µM (inactive)
same,GI50,[18],> 100 µM (inactive)
same,GI50,[58],> 100 µM (inactive)
same,GI50,[19],> 100 µM (inactive)
same,GI50,[20],> 100 µM (inactive)
same,GI50,[21],> 100 µM (inactive)
same,GI50,[22],> 100 µM (inactive)
same,GI50,[23],37.9 µM (inactive)
same,GI50,[24],> 100 µM (inactive)
same,GI50,[25],> 100 µM (inactive)
same,GI50,[54],> 100 µM (inactive)
same,GI50,[26],> 100 µM (inactive)
same,GI50,[55],> 100 µM
same,GI50,[27],> 100 µM (inactive)
same,GI50,[56],> 100 µM (inactive)
same,GI50,[28],> 100 µM (inactive)
same,GI50,[29],> 100 µM (inactive)
same,GI50,[30],> 100 µM (inactive)
same,GI50,[31],> 100 µM (inactive)
same,GI50,[59],> 100 µM (inactive)
same,GI50,[32],> 100 µM (inactive)
same,GI50,[57],> 100 µM (inactive)
same,GI50,[33],> 100 µM (inactive)
same,GI50,[34],> 100 µM (inactive)
same,GI50,[35],> 100 µM (inactive)
same,GI50,[36],> 100 µM (inactive)
same,GI50,[37],> 100 µM (inactive)
same,GI50,[38],> 100 µM (inactive)
same,GI50,[39],> 100 µM (inactive)
same,GI50,[40],> 100 µM (inactive)
same,GI50,[41],> 100 µM (inactive)
same,GI50,[43],> 100 µM (inactive)
same,GI50,[44],> 100 µM (inactive)
same,GI50,[46],> 100 µM (inactive)
same,GI50,[47],> 100 µM (inactive)
same,GI50,[48],> 100 µM (inactive)
same,GI50,[49],> 100 µM (inactive)
same,GI50,[50],> 100 µM (inactive)
same,GI50,[51],> 100 µM (inactive)
same,GI50,[52],> 100 µM (inactive)
same,GI50,[53],> 100 µM (inactive)
